Measured values from ChEMBL document CHEMBL1123770, “Systematic synthesis and biological evaluation of alpha- and beta-D-lyxofuranosyl nucleosides of the five naturally occurring nucleic acid bases” (1987).
Converted amounts (≈) assume the structure as drawn.

Key:
HeLa [1] = assay: Minimum inhibitory concentration (MIC) required to reduce virus-induced cytopathogenicity by 50% against Coxsackie virus B4 in HeLa cells; assay type: functional; settings: Homo sapiens
HeLa [2] = assay: Minimum cytotoxic concentration (MCC) required to cause a microscopically detectable alteration of host cell morphology, when incubated with HeLa cells; assay type: functional; settings: Homo sapiens
Monkey = assay: (§1) Minimum inhibitory concentration (MIC) required to reduce virus-induced cytopathogenicity by 50% against forest virus in African green monkey kidney (Vero B)cells; assay type: functional, Chlorocebus sabaeus; settings: Cercopithecidae
WI-38 [3] = assay: Minimum cytotoxic concentration (MCC) required to cause a microscopically detectable alteration of host cell morphology, when incubated with WI-38 cells; assay type: functional; settings: Homo sapiens
Oryctolagus cuniculus [4] = species: Oryctolagus cuniculus; assay: Minimum inhibitory concentration (MIC) required to reduce virus-induced cytopathogenicity by 50% against G strain of Herpes simplex virus-2 in primary rabbit kidney cells; assay type: functional; settings: Oryctolagus cuniculus; read-out: MIC
Vero [5] = assay: Minimum inhibitory concentration (MIC) required to reduce virus-induced cytopathogenicity by 50% against Reo virus-1 in African green monkey kidney (Vero B)cells; assay type: functional, Chlorocebus sabaeus; settings: Chlorocebus sabaeus; read-out: MIC
Vero [6] = assay: Minimum inhibitory concentration (MIC) required to reduce virus-induced cytopathogenicity by 50% against Coxsackie virus B4 in African green monkey kidney (Vero B)cells; assay type: functional, Chlorocebus sabaeus; settings: Chlorocebus sabaeus; read-out: MIC
Vero [7] = assay: Minimum inhibitory concentration (MIC) required to reduce virus-induced cytopathogenicity by 50% against Sindbis virus in African green monkey kidney (Vero B)cells; assay type: functional; settings: Chlorocebus sabaeus
Vero [8] = assay: Minimum cytotoxic concentration (MCC) required to cause a microscopically detectable alteration of host cell morphology, when incubated with Vero B cells; assay type: functional; settings: Chlorocebus sabaeus
Oryctolagus cuniculus [9] = species: Oryctolagus cuniculus; assay: Minimum inhibitory concentration (MIC) required to reduce virus-induced cytopathogenicity by 50% against KOS strain of Herpes simplex virus-1 in primary rabbit kidney cells; assay type: functional
Vero [10] = assay: (§2) Minimum inhibitory concentration (MIC) required to reduce virus-induced cytopathogenicity by 50% against Parainfluenza virus-3 in African green monkey kidney (Vero B)cells; assay type: functional, Chlorocebus sabaeus; settings: Chlorocebus sabaeus; read-out: MIC
WI-38 [11] = assay: Minimum inhibitory concentration (MIC) required to reduce virus-induced cytopathogenicity by 50% against Rhinovirus 9 in human diploid (WI-38)cells; assay type: functional; settings: Homo sapiens; read-out: MIC
[12] = Minimum cytotoxic concentration (MCC) required to cause a microscopically detectable alteration of host cell morphology, when incubated with PRK cells; assay type: functional; settings: Oryctolagus cuniculus
WI-38 [13] = assay: Minimum inhibitory concentration (MIC) required to reduce virus-induced cytopathogenicity by 50% against Rhinovirus-1A in human diploid (WI-38)cells; assay type: functional
Oryctolagus cuniculus [14] = species: Oryctolagus cuniculus; assay: Minimum inhibitory concentration (MIC) required to reduce virus-induced cytopathogenicity by 50% against Vaccinia virus in primary rabbit kidney cells; assay type: functional; settings: Oryctolagus cuniculus; read-out: MIC
Vero [15] = assay: as §1; assay type: functional; settings: Chlorocebus sabaeus
HeLa [16] = assay: Minimum inhibitory concentration (MIC) required to reduce virus-induced cytopathogenicity by 50% against Vesicular stomatitis virus in HeLa cells; assay type: functional; settings: Homo sapiens
Human respirovirus 3 = assay: as §2; assay type: functional
Oryctolagus cuniculus [17] = species: Oryctolagus cuniculus; assay: Minimum inhibitory concentration (MIC) required to reduce virus-induced cytopathogenicity by 50% against Vesicular stomatitis virus in primary rabbit kidney cells; assay type: functional
[18] = Inhibitory effect on KOS strain of Herper simplex virus-1 yield, in primary rabbit kidney cell culture at 0.1 ug/mL concentration after 24 hours; assay type: functional, Oryctolagus cuniculus
Mus musculus [19] = species: Mus musculus; assay: Number of mice normal, without lesion after HSV-1 infection observed from day 0 to day 3; assay type: functional
[20] = Inhibitory effect on 196 strain of Herper simplex virus-2 yield, in primary rabbit kidney cell culture 4 ug/mL concentration after 48 hours.; assay type: functional, Oryctolagus cuniculus
[21] = Inhibitory effect on KOS strain of Herper simplex virus-1 yield, in primary rabbit kidney cell culture at 0.04 ug/mL concentration after 24 hours; assay type: functional, Oryctolagus cuniculus
[22] = Inhibitory effect on KOS strain of Herper simplex virus-1 yield, in primary rabbit kidney cell culture at 0.4 ug/mL concentration after 24 hours; assay type: functional, Oryctolagus cuniculus
[23] = Inhibitory effect on KOS strain of Herper simplex virus-1 yield, in primary rabbit kidney cell culture at 4 ug/mL concentration after 24 hours; assay type: functional, Oryctolagus cuniculus
[24] = Inhibitory effect on 196 strain of Herper simplex virus-2 yield, in primary rabbit kidney cell culture 0.1 ug/mL concentration after 48 hours.; assay type: functional, Oryctolagus cuniculus
[25] = Inhibitory effect on KOS strain of Herper simplex virus-1 yield, in primary rabbit kidney cell culture 0.1 ug/mL concentration after 48 hours.; assay type: functional, Oryctolagus cuniculus
Mus musculus [26] = species: Mus musculus; assay: Number of mice normal, without lesion after HSV-2 infection observed from day 12 to day 20; assay type: functional
[27] = Inhibitory effect on 196 strain of Herper simplex virus-2 yield, in primary rabbit kidney cell culture 4 ug/mL concentration after 24 hours.; assay type: functional, Oryctolagus cuniculus
[28] = Inhibitory effect on 196 strain of Herper simplex virus-2 yield, in primary rabbit kidney cell culture 0.4 ug/mL concentration after 48 hours.; assay type: functional, Oryctolagus cuniculus
Mus musculus [29] = species: Mus musculus; assay: Survival rate at 20th day expressed as number of mice survived infected with HSV-2; out of 10; assay type: functional
Mus musculus [30] = species: Mus musculus; assay: Number of mice normal, without lesion after HSV-2 infection observed from day 0 to day 3; assay type: functional
[31] = Inhibitory effect on KOS strain of Herper simplex virus-1 yield, in primary rabbit kidney cell culture 0.4 ug/mL concentration after 48 hours.; assay type: functional, Oryctolagus cuniculus
[32] = Inhibitory effect on 196 strain of Herper simplex virus-2 yield, in primary rabbit kidney cell culture 0.04 ug/mL concentration after 48 hours.; assay type: functional, Oryctolagus cuniculus
[33] = Inhibitory effect on 196 strain of Herper simplex virus-2 yield, in primary rabbit kidney cell culture 1 ug/mL concentration after 48 hours.; assay type: functional, Oryctolagus cuniculus
[34] = Inhibitory effect on KOS strain of Herper simplex virus-1 yield, in primary rabbit kidney cell culture 4 ug/mL concentration after 48 hours.; assay type: functional, Oryctolagus cuniculus
[35] = Inhibitory effect on KOS strain of Herper simplex virus-1 yield, in primary rabbit kidney cell culture 0.04 ug/mL concentration after 48 hours.; assay type: functional, Oryctolagus cuniculus
[36] = Inhibitory effect on 196 strain of Herper simplex virus-2 yield, in primary rabbit kidney cell culture 1 ug/mL concentration after 24 hours.; assay type: functional, Oryctolagus cuniculus
[37] = Inhibitory effect on 196 strain of Herper simplex virus-2 yield, in primary rabbit kidney cell culture 0.4 ug/mL concentration after 24 hours.; assay type: functional, Oryctolagus cuniculus
[38] = Inhibitory effect on 196 strain of Herper simplex virus-2 yield, in primary rabbit kidney cell culture 0.1 ug/mL concentration after 24 hours.; assay type: functional, Oryctolagus cuniculus
[39] = Inhibitory effect on 196 strain of Herper simplex virus-2 yield, in primary rabbit kidney cell culture 0.04 ug/mL concentration after 24 hours.; assay type: functional, Oryctolagus cuniculus
[40] = Inhibitory effect on KOS strain of Herper simplex virus-1 yield, in primary rabbit kidney cell culture at 1 ug/mL concentration after 24 hours; assay type: functional, Oryctolagus cuniculus
Mus musculus [41] = species: Mus musculus; assay: Number of mice normal, without lesion after HSV-1 infection observed from day 12 to day 20; assay type: functional
[42] = Inhibitory effect on KOS strain of Herper simplex virus-1 yield, in primary rabbit kidney cell culture 1 ug/mL concentration after 48 hours.; assay type: functional, Oryctolagus cuniculus
Mus musculus [43] = species: Mus musculus; assay: Survival rate at 20th day expressed as number of mice survived infected with HSV-1; out of 10; assay type: functional
[44] = Inhibitory effect on KOS strain of Herper simplex virus-1 yield, in primary rabbit kidney cell culture 10 ug/mL concentration after 48 hours.; assay type: functional, Oryctolagus cuniculus
Mus musculus [45] = species: Mus musculus; assay: Number of mice dead, after HSV-1 infection observed from day 12 to day 20; assay type: functional
[46] = Inhibitory effect on 196 strain of Herper simplex virus-2 yield, in primary rabbit kidney cell culture 10 ug/mL concentration after 24 hours.; assay type: functional, Oryctolagus cuniculus
Mus musculus [47] = species: Mus musculus; assay: Number of mice dead, after HSV-2 infection observed from day 12 to day 20; assay type: functional
[48] = Inhibitory effect on KOS strain of Herper simplex virus-1 yield, in primary rabbit kidney cell culture at 10 ug/mL concentration after 24 hours; assay type: functional, Oryctolagus cuniculus
[49] = Inhibitory effect on KOS strain of Herper simplex virus-1 yield, in primary rabbit kidney cell culture at 40 ug/mL concentration after 24 hours; assay type: functional, Oryctolagus cuniculus
[50] = Inhibitory effect on 196 strain of Herper simplex virus-2 yield, in primary rabbit kidney cell culture 10 ug/mL concentration after 48 hours.; assay type: functional, Oryctolagus cuniculus
[51] = Inhibitory effect on 196 strain of Herper simplex virus-2 yield, in primary rabbit kidney cell culture 40 ug/mL concentration after 48 hours.; assay type: functional, Oryctolagus cuniculus
Mus musculus [52] = species: Mus musculus; assay: Number of mice with skin lesions plus paralysis, after HSV-1 infection observed from day 12 to day 20; assay type: functional
[53] = Inhibitory effect on KOS strain of Herper simplex virus-1 yield, in primary rabbit kidney cell culture 40 ug/mL concentration after 48 hours.; assay type: functional, Oryctolagus cuniculus
[54] = Inhibitory effect on 196 strain of Herper simplex virus-2 yield, in primary rabbit kidney cell culture 40 ug/mL concentration after 24 hours.; assay type: functional, Oryctolagus cuniculus

Structure (SMILES)	MIC (HeLa [1]) [µg/mL]	MCC (HeLa [2]) [µg/mL]	MCC (WI-38 [3]) [µg/mL]	MIC (Oryctolagus cuniculus [4]) [µg/mL]	MIC (Vero [5]) [µg/mL]	MIC (Vero [6]) [µg/mL]	MIC (Vero [7]) [µg/mL]	MCC (Vero [8]) [µg/mL]	MIC (Oryctolagus cuniculus [9]) [µg/mL]	MIC (WI-38 [11]) [µg/mL]	MCC [12] [µg/mL]	MIC (WI-38 [13]) [µg/mL]	No. of mice (Mus musculus [19])	Virus yield [20] [log pfu ml-1]	Virus yield [23] [log pfu ml-1]	No. of mice (Mus musculus [26])	Virus yield [27] [log pfu ml-1]	Survival rate (Mus musculus [29])	No. of mice (Mus musculus [30])	Virus yield [34] [log pfu ml-1]	further results
Cc1cn([C@@H]2O[C@H](CO)[C@H](O)[C@@H]2O)c(=O)[nH]c1=O	> 400	> 400	> 400	> 400	> 400	> 400	> 400	> 400	> 400	> 150	> 400	> 400	–	–	–	–	–	–	–	–	MIC (Monkey): > 400 µg/mL; MIC (Vero [10]): > 400 µg/mL
Nc1nccc2c1ncn2[C@@H]1C[C@H](CO)[C@@H](O)[C@H]1O [3-DEAZAARISTEROMYCIN A]	> 400	> 400	> 400	150 (≈ 568 µM)	1 (≈ 3.78 µM)	0.04 (≈ 0.151 µM)	70 (≈ 265 µM)	> 400	> 400	> 400	> 400	> 400	–	–	–	–	–	–	–	–	MIC (Oryctolagus cuniculus [14]): 0.7 µg/mL (≈ 2.65 µM); MIC (Vero [15]): > 200 µg/mL; MIC (HeLa [16]): 0.7 µg/mL (≈ 2.65 µM); MIC (Human respirovirus 3): 0.7 µg/mL (≈ 2.65 µM); MIC (Oryctolagus cuniculus [17]): 0.2 µg/mL (≈ 0.757 µM)
Nc1nc2c(ncn2COCCO)c(=O)[nH]1 [ACYCLOVIR]	–	–	–	–	–	–	–	–	–	–	–	–	10	3.8	2	5	<2	5	10	3.3	Virus yield [18]: 5.2 log pfu ml-1; Virus yield [21]: 5.6 log pfu ml-1; Virus yield [22]: 4.1 log pfu ml-1; Virus yield [24]: 5.6 log pfu ml-1; Virus yield [25]: 5.6 log pfu ml-1; Virus yield [28]: 5 log pfu ml-1; Virus yield [31]: 5 log pfu ml-1; Virus yield [32]: 5.7 log pfu ml-1; Virus yield [33]: 5.3 log pfu ml-1; Virus yield [35]: 5.9 log pfu ml-1; Virus yield [36]: 3.1 log pfu ml-1; Virus yield [37]: 4.1 log pfu ml-1; Virus yield [38]: 4.8 log pfu ml-1; Virus yield [39]: 5.8 log pfu ml-1; Virus yield [40]: 3.6 log pfu ml-1; No. of mice (Mus musculus [41]): 10; Virus yield [42]: 5.3 log pfu ml-1; Survival rate (Mus musculus [43]): 10
Nc1ncnc2c1ncn2[C@@H]1O[C@H](CO)[C@@H](O)[C@H]1O [ADENOSINE]	–	–	–	–	–	–	–	–	–	–	–	–	10	5.7	6.7	3	5	3	10	6.8	Virus yield [44]: 6.8 log pfu ml-1; No. of mice (Mus musculus [45]): 6; Virus yield [46]: 4.7 log pfu ml-1; No. of mice (Mus musculus [47]): 7; Virus yield [48]: 5.7 log pfu ml-1; Virus yield [49]: 3 log pfu ml-1; Virus yield [50]: 5.2 log pfu ml-1; Virus yield [51]: 4.3 log pfu ml-1; No. of mice (Mus musculus [52]): 1; Virus yield [53]: 5.5 log pfu ml-1; No. of mice (Mus musculus [41]): 3; Virus yield [54]: <1.6 log pfu ml-1; Survival rate (Mus musculus [43]): 4
